In patent US12383573B2, “Use of luteolin-7-O-glucoside or luteolin-7-O-glucuronide in preparation of medicine for eye injuries” (BEIJING CHENGYI INVESTMENT CO., LTD., priority 2019, dated 2025):

Key:
Assay type in all cases: cell-based
[1] = test system: human retinal pigment epithelial cells ARPE-19; experiment: Cytotoxicity on human retinal pigment epithelial cells ARPE-19 (MTT); conditions: ARPE-19, 12.5˜100 μmol/L, 24 h
Description: ARPE-19 cells (purchased from Guangzhou Jinnuo Biotechnology Co., Ltd., China) were seeded into RPMI-1640 low-glucose cell culture medium containing 10% fetal bovine serum and 1% dual-antibiotics (penicillin-streptomycin) (culture medium containing 2 g/L D-glucose, 0.3 g/L L-glutamine and 2 g/L sodium bicarbonate), and the medium was replaced once every 3 days for future use.
Cells at exponential growth phase were used, and 100 μl of complete medium was added to each well to reach a concentration of 1×10^4 cells/mL. Then the cells were cultured in a humidified atmosphere at 37° C. and 5% CO2 for 24 h. After the cells fully adhered, luteolin-7-O-glucoside and luteolin-7-O-glucuronide with final concentrations of 12.5 μmol/L, 25 μmol/L, 50 μmol/L, and 100 μmol/L were added respectively, and cultured for 24 h.
The cell viability was determined by the 3-(4,5-dimethyl-2-thiazolyl)-2,5-diphenyl-2-H-tetrazolium […] (MTT) method: 20 μl of 5 mg/ml MTT was added to each well, and the cells were cultured in a CO2 incubator for 4 h, with all operations shielded from light. […] The absorbance of ARPE-19 cells was measured with a microplate reader at 490 nm, and the cell survival rate was calculated as follows: cell survival rate=(OD value of experimental group−OD value of blank group)/(OD of control group−OD of blank group)×100%.

[2] = test system: human retinal pigment epithelial cells ARPE-19; experiment: Blue light-induced damage to A2E-pretreated ARPE-19 cells, cell survival (MTT); conditions: 12.5˜50 μmol/L
Description: ARPE-19 cells were seeded into RPMI-1640 low-glucose cell culture medium containing 10% fetal bovine serum and 1% dual-antibiotics (penicillin-streptomycin), and the medium was replaced once every 3 days for future use.
Cells at exponential growth phase were used, and cells at 500 μl/well were seeded to a 24-well cell culture plate at a concentration of 5×10^4 cells/mL, and cultured in a humidified atmosphere at 37° C. and 5% CO2. After the cells fully adhered, the medium was replaced with the DMEM culture medium containing 25 μmol/L N-retinylidene-N-retinyl ethanolamine (A2E) for 2 hours of culture. Then, the supernatant was discarded, and the cells were washed 3 times with PBS, added with the luteolin-7-O-glucoside and luteolin-7-O-glucuronide with final concentrations of 12.5 μmol/L, 25 μmol/L, and […] respectively for 6 h of continuous culture, and then placed in a blue light device (50W LED blue light board with a blue light intensity of 3230˜3540 Lux) for 4 h of irradiation. After the light irradiation, the cells were placed in a 37° C. and 5% CO2 incubator again and continued to incubate for 24 h. […] The OD values were measured with a multi-well microplate reader at 490 nm, and the cell survival rate was calculated as follows: cell survival rate=(OD value of experimental group−OD value of blank group)/(OD of control group−OD of blank group)×100%. […]

[3] = test system: human retinal pigment epithelial cells ARPE-19; experiment: Intracellular ROS content by DHE staining in blue light-damaged ARPE-19 cells; conditions: A2E + blue light, vs model group
Description: A single layer of ARPE-19 cells were seeded and cultured in a 24-well plate with a cell concentration of 5×10^4 cells/well. After treatment as described in Example 2, the cells were washed twice with PBS and reactive oxygen species (ROS) fluorescent probe dihydroethidium (DHE) staining solution with a concentration of 20 μmol/L was added, and the cells were incubated at 37° C. for 20 min. Then, the cells were washed twice with PBS to fully remove the DHE probe that had not entered the cell, and then imaging was performed under an inverted microscope with an excitation wavelength of 540 nm and an emission wavelength of 590 nm.

[4] = test system: human retinal pigment epithelial cells ARPE-19; experiment: Hoechst 33342 nuclear staining (apoptosis) in blue light-damaged ARPE-19 cells; conditions: A2E + blue light, vs model group
Description: The cells were seeded in a 24-well plate (5×10^4 cells/well), and after the treatment as previously described, the fix solution was added and incubated for 30 min. Then the cells were washed three times with PBS, added with live cell staining solution (Hoechst 33342) with a concentration of 20 μg/mL, and incubated for 15 min at room temperature shielded from light. After the cells were washed with PBS, imaging was performed under an inverted fluorescence microscope with an excitation wavelength of 365 nm and an emission wavelength of 460 nm.

SMILES | cytotoxicity on ARPE-19 (in words) [1] | concentration dependence of the cell survival rate (in words) [2] | intracellular fluorescence intensity (ROS content, DHE staining) [3] | cell status / nuclear condensation (Hoechst 33342, apoptosis) [4]
O=c1cc(-c2ccc(O)c(O)c2)oc2cc(O[C@@H]3O[C@H](CO)[C@@H](O)[C@H](O)[C@H]3O)cc(O)c12 [luteolin-7-O-glucoside] | no cytotoxicity | concentration-dependent | decreased significantly as the dose increased | the cell status had obviously improved
O=C(O)[C@H]1O[C@@H](Oc2cc(O)c3c(=O)cc(-c4ccc(O)c(O)c4)oc3c2)[C@H](O)[C@@H](O)[C@@H]1O [luteolin-7-O-glucuronide] | no cytotoxicity | concentration-dependent |  | 
